Experimental data from patent US20260184708A1, “PYRIDAZINONES AND METHODS OF USE THEREOF” (GFB (ABC), LLC, priority 2017, published 2026).

The compounds below were run against T1, TRPC4 (Homo sapiens, UniProt Q9UBN4) (assay: TRPC4 FLIPR Assay (HEK-TREx hTRPC4, Englerin A stimulation)). Conditions: Table 8; HEK-TREx hTRPC4; read-out: TRPC4 FLIPR IC50.
T1 construct: expressed in transfected cells; host or cells: HEK-TREx (HekTrex-293), cell line ICLN-1694, tetracycline-induced
T1 sequence (Q9UBN4 1-982 isoform Q9UBN4-5): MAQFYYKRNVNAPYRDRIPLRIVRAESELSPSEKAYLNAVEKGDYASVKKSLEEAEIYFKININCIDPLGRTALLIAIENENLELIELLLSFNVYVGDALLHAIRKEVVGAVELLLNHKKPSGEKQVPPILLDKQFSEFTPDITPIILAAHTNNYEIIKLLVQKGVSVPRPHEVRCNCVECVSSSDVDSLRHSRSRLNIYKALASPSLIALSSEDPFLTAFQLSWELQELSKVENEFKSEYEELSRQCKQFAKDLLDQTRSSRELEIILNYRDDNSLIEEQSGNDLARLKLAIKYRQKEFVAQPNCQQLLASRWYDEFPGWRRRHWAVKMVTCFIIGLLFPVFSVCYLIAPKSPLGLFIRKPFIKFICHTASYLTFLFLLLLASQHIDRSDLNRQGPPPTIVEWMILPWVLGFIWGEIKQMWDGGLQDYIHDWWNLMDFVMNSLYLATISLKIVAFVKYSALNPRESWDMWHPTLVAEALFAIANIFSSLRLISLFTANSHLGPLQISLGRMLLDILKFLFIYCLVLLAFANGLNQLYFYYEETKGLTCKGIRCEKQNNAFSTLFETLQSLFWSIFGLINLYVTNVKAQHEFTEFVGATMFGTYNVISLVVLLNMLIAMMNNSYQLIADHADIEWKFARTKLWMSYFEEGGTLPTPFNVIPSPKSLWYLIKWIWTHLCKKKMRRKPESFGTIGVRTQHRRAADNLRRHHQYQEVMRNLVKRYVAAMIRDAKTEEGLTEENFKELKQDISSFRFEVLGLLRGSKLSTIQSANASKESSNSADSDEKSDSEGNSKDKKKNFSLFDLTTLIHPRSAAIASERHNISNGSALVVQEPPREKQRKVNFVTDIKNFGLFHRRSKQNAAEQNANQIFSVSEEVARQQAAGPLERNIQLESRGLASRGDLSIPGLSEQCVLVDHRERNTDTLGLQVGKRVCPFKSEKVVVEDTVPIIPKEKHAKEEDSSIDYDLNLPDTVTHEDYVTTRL
Format: cell-based
Description: FLIPR Assay Buffer (Earls Balanced Salt Solution (EBSS)) was prepared as follows:
10-point dose response curves were generated using the Echo-550 acoustic dispenser. Compound source plates were made by serially diluting compound stocks to create 10 mM, 1 mM, and 0.1 mM solutions in DMSO into Echo certified LDV plates. The Echo then serially spotted 100% DMSO stock solutions into source dose response plates to generate a 4-fold dilution scheme. 100% DMSO was added to the spotted dose response plates to bring the final volume to 5 μl. […] of the dose response stock plate was then spotted into pre-incubation and stimulation assay plates. […] of pre-incubation buffer and 100 μl of stimulation buffer was then added to the plates resulting in a final assay test concentration range of 30 μM to 0.0001 μM with a final DMSO concentration of 0.3%.
Experimental Methods: Cells expressing TRPC4 were plated onto 384 well, black pdl-coated microplates and maintained in TRPC4 growth media the day prior to use for experiments. TRPC4 expression was induced by the application of 1 μg/ml tetracycline at the time of plating. […] Cells were incubated at room temperature, protected from light, for 60-90 minutes. After the incubation period, the dye was removed and replaced with 10 μl of EBSS. Cell, pre-incubation and stimulation plates were loaded onto the FLIPR-II and the assay was initiated. The FLIPR measured a 10 second baseline and then added 10 μl of 2× compounds (or controls). Changes in fluorescence were monitored for an additional 5 minutes. After a 5 minute pre-incubation, 20 μl of 2× Englerin A (with 1× compound or controls) was added to the cell plate. The final Engerlin A stimulation concentration in the assay is 100 nM. After the Englerin A addition, changes in fluorescence were monitored for an additional 5 minutes.
Test Agent Effect: Test agent modulation of TRPC4 calcium response was determined as follows. After the Englerin A, fluorescence was monitored for a 5 minute period. The maximum relative fluorescence response (minus the control response of […] of the control inhibitor) was captured and exported from the FLIPR. Test agent effect was calculated as % inhibition using the following formula: % inhibition=((RFU TEST AGENT−Plate Average RFU REF INHIB)/(Plate Average RFU CONTROL−Plate Average RFU REF INHIB))×100

IC50, 1000 to 5000 nM:
COCc1ncccc1Cn1cnc2c1CCN(c1cn[nH]c(=O)c1Cl)C2 [drawing 966], O=c1[nH]ncc(N2CCc3c(ncn3-c3ccccc3C(F)(F)F)C2)c1Cl [drawing 954], N#Cc1c(N2CCc3c(nnn3Cc3ccccc3C(F)(F)F)C2)cn[nH]c1=O [drawing 959], C[C@@H](c1ccccc1)n1nnc2c1CCN(c1cn[nH]c(=O)c1Cl)C2

IC50, 0.01 to 1000 nM:
CCc1ncccc1N(C)c1ncc2c(n1)CN(c1cn[nH]c(=O)c1Cl)C2 [drawing 1006], C[C@@H]1Cc2c(c(C(N)=O)nn2Cc2ccccc2C(F)(F)F)CN1c1cn[nH]c(=O)c1Cl [drawing 986], C[C@H](c1ccccc1C(F)F)n1nnc2c1CCN(c1cn[nH]c(=O)c1Cl)C2 [drawing 977], O=c1[nH]ncc(N2CCc3c(ncn3Cc3ccccc3Cl)C2)c1Cl [drawing 1000], C[C@H](c1ccccc1C(F)(F)F)n1nc(C(N)=O)c2c1CCN(c1cn[nH]c(=O)c1Cl)C2 [drawing 990], NC(=O)c1nc2c(n1Cc1ccccc1C(F)(F)F)CCN(c1cn[nH]c(=O)c1Cl)C2 [drawing 997], CC(c1ccc(F)cc1C(F)F)n1[nH]c(=O)c2c1CCN(c1cn[nH]c(=O)c1Cl)C2 (stereo not shown), C[C@@H](c1ccccc1C(F)(F)F)n1nnc2c1CCN(c1cn[nH]c(=O)c1Cl)C2 [drawing 962], O=c1[nH]ncc(N2CCc3c(ncn3Cc3ccc(F)cc3C(F)F)C2)c1Cl [drawing 960], C[C@@H](c1ccccc1C(F)(F)F)n1nnc2c1CCN(c1cn[nH]c(=O)c1C#N)C2, CCN(c1ncc2c(n1)CN(c1cn[nH]c(=O)c1Cl)C2)c1ccccc1Cl [drawing 1004], Cc1ccccc1CN1CCN(c2cn[nH]c(=O)c2Cl)CC1=O [drawing 1008], O=c1[nH]ncc(N2CCc3c(ncn3Cc3ccc(F)cc3Cl)C2)c1Cl [drawing 998], C[C@@H](c1ccccc1C(F)F)n1nnc2c1CCN(c1cn[nH]c(=O)c1Cl)C2 [drawing 980], C[C@@H]1Cc2c(nnn2[C@@H](C)c2ccc(F)cc2C(F)(F)F)CN1c1cn[nH]c(=O)c1Cl [drawing 974], C[C@@H](c1ccccc1Cl)n1nnc2c1CCN(c1cn[nH]c(=O)c1Cl)C2 [drawing 1001], C[C@@H](c1ccc(F)cc1C(F)(F)F)n1nnc2c1CCN(c1cn[nH]c(=O)c1Cl)C2, CNC(=O)c1nn([C@H](C)c2ccccc2C(F)F)c2c1CN(c1cn[nH]c(=O)c1Cl)CC2 [drawing 982], O=C1CN(c2cn[nH]c(=O)c2Cl)CCN1Cc1ccccc1OC(F)(F)F [drawing 1015], CNC(=O)c1nn(Cc2ccc(F)cc2C(F)F)c2c1CN(c1cn[nH]c(=O)c1Cl)CC2 [drawing 985], O=c1[nH]ncc(N2CCc3c(nnn3Cc3ccc(F)cc3CC(F)(F)F)C2)c1Cl [drawing 994], O=C1CN(c2cn[nH]c(=O)c2Br)CCN1Cc1cccc2ccccc12 [drawing 1009], O=C1CN(c2cn[nH]c(=O)c2Cl)CCN1Cc1ccc(F)cc1Cl [drawing 1013], CC(c1ccc(F)cc1C(F)F)n1nc(C(N)=O)c2c1CCN(c1cn[nH]c(=O)c1Cl)C2 (stereo not shown) [drawing 983], C[C@@H]1Cc2c(nnn2[C@@H](C)c2ccccc2C(F)(F)F)CN1c1cn[nH]c(=O)c1Cl [drawing 968]

IC50, 5000 to 10000 nM:
CCc1ncccc1CN1CCN(c2cn[nH]c(=O)c2C#N)CC1, CCc1ncccc1CN1CCN(c2cn[nH]c(=O)c2Cl)C(C)C1 (stereo not shown), C[C@@H]1CN(Cc2ccccc2C(F)(F)F)CCN1c1cn[nH]c(=O)c1Cl [drawing 1016], Cc1ccccc1CN1C[C@@H](C)N(c2cn[nH]c(=O)c2Cl)CC1=O

Same assay, conditions: Table 10; HEK-TREx hTRPC4; read-out: TRPC4-FLIPR ICSO

IC50, 0.01 to 1000 nM:
CN1CCN(Cc2nn(Cc3ccccc3C(F)F)c3c2CN(c2cn[nH]c(=O)c2Cl)CC3)C(=O)C1 [drawing 1091]
